Measured values as given in patent publication US20150136638A1, “METHOD FOR PREPARING A SYRUPY PRODUCT COMPRISING VITAMINS” (LaboratoiresUrgo, priority 2012, published 2015).

Test: Assay of the vitamins contained in a randomly taken bottle of the syrupy product of Example 2 (yield = actual / theoretical amount x 100)
Format: physicochemical
Conditions: syrupy product of Example 2, after preparation and packaging under inert atmosphere; actual amount of vitamin in the bottle divided by theoretical amount x 100
Protocol: The process can be broken down into the following steps: • the two preparation tanks (PT1 and PT2) and the pipe connecting them are inerted with an overpressure of inert gas at 0.4 bar for 300 sec.; • the sugar syrup is introduced into the main preparation tank (PT1); • the sugar syrup is left to stir with bubbling of nitrogen with a pressure of 0.4 bar and a flow rate of 4 Nm^3/h for 4 hours; • the sugar syrup is heated at 50° C. by means of the double jackets surrounding tank PT1; • the pH of the sugar syrup is adjusted to 9.5 by introducing the sodium hydroxide and the ascorbic acid; • the secondary preparation tank (PT2) is preheated at 50° C. by means of the double jackets surrounding tank PT2; • the Montanox 80 and the following fat-soluble vitamins: vitamin A, vitamin D3, vitamin E, are introduced into the secondary preparation tank (PT2); • the mixture in tank PT2 is left to stir at 50° C. and with bubbling of nitrogen for 60 minutes; • the content of tank PT2 is transferred to tank PT1 via the pipe connecting them; • tank PT2 is rinsed several times with water, at 50° C., purified and deoxygenated beforehand, and the rinsing water is then transferred to tank PT1 via the pipe connecting PT2 to PT1; • the content of tank PT1 is left to stir at 50° C. and with bubbling of nitrogen for 60 minutes; • the temperature of the content of tank PT1 is reduced to 35° C.; • the following water-soluble vitamins: vitamin B1, vitamin B2, vitamin B3, vitamin B5, vitamin B6, vitamin B8, vitamin B12 and vitamin C, and also the plum flavoring, are introduced into tank PT1; • the reservoirs which contained the vitamins are rinsed with purified water and the rinsing water is added to tank PT1; • the content of tank PT1 is left to stir at 35° C. and with bubbling of nitrogen for 120 minutes; • the dehydrated glucose is introduced into tank PT1 via the powder-transferring system; • purified and deoxygenated water is introduced into tank PT1; • the content of tank PT1 is left to stir at 35° C. and with bubbling of nitrogen for 60 minutes; • the piping between tank PT1 and the storage tank is inerted, and the storage tank is inerted with a nitrogen pressure at 0.4 bar and a flow rate of 1 Nm^3/h for 300 seconds; • the content of tank PT1 is transferred to the storage tank passing through the mixer into which nitrogen is injected, in contraflow to the passage of the liquid, with a pressure of 0.4 bar and a flow rate of 8 Nm^3/h; • the syrupy product which gradually accumulates in the storage tank is kept stirring at 150 rpm and with bubbling of nitrogen with a pressure of 0.4 bar and a flow rate of 2 Nm^3/h; • the pipes between the storage tank and the bottle-filling machine, and also the packaging hopper, are inerted with nitrogen at a pressure of 0.3 bar for 600 seconds; • the syrupy product is transferred to the packaging hopper and the content is kept at a nitrogen pressure of 0.2 bar; • the syrupy product is gradually transferred to the bottle-filling machine; • the bottles are inerted with nitrogen at 1 bar for 100 milliseconds, then they are filled with a volume of syrupy product metered by a positive-displacement pump and they are kept under a nitrogen atmosphere until they are closed by means of a crimped valve.
One of the bottles produced is taken randomly and the vitamins contained in this bottle are assayed. The yields are calculated by dividing the actual amount of vitamins that is contained in the bottle by the theoretical amount of vitamins that should be in the bottle, and by multiplying the result by 100.
For `CC1=C(/C=C/C(C)=C/C=C/C(C)=C/CO)C(C)(C)CCC1` [Vitamin A, retinol], the “YIELD (individual vitamin ratio)” value was 100%. In the case of `Cc1cc2nc3c(=O)[nH]c(=O)nc-3n(C[C@H](O)[C@H](O)[C@H](O)CO)c2cc1C` [Vitamin B2, riboflavin], the “YIELD (individual vitamin ratio)” value was 98.6%. For `O=C(O)c1cccnc1` [Vitamin B3, nicotinic acid], the “YIELD (individual vitamin ratio)” value was 98.8%. For `CC(C)(CO)[C@@H](O)C(=O)NCCC(=O)O` [Vitamin B5, pantothenic acid], the “YIELD (individual vitamin ratio)” value was 100%. For `Cc1ncc(CO)c(CO)c1O` [Vitamin B6, pyridoxine], the “YIELD (individual vitamin ratio)” value was 98.6%. In the case of Vitamin E, the “YIELD (individual vitamin ratio)” value was 100%.
